Results: ChEMBL document CHEMBL3046502, “In vitro antimicrobial and antitubercular studies of novel 6-substituted (pyrrolidin-1-yl)-2(1H)-pyridinones” (2012)
Converted amounts (≈) assume the structure as drawn.

Tests used:
Assay type in all cases: functional
Pseudomonas aeruginosa = experiment: Antimicrobial activity against Pseudomonas aeruginosa MTCC 2488 by broth microdilution method
Aspergillus niger = experiment: Antimicrobial activity against Aspergillus niger MTCC 282
Staphylococcus aureus = experiment: Antimicrobial activity against Staphylococcus aureus MTCC 96 by broth microdilution method
Candida albicans = experiment: Antimicrobial activity against Candida albicans MTCC 227
[1] = test system: Mycobacterium tuberculosis; experiment: Antimicrobial activity against Mycobacterium tuberculosis H37Rv; conditions: for MIC: Mycobacterium tuberculosis, H37Rv
Streptococcus pyogenes = experiment: Antimicrobial activity against Streptococcus pyogenes MTCC 443 by broth microdilution method
Escherichia coli = experiment: Antimicrobial activity against Escherichia coli MTCC 442 by broth microdilution method
Aspergillus clavatus = experiment: Antimicrobial activity against Aspergillus clavatus MTCC 1323

Compound | MIC (Pseudomonas aeruginosa) [µg/mL] | MIC (Aspergillus niger) [µg/mL] | MIC (Staphylococcus aureus) [µg/mL] | MIC (Candida albicans) [µg/mL] | inhibition (INH) [1] [%] | MIC [1] [µg/mL] | MIC (Streptococcus pyogenes) [µg/mL] | MIC (Escherichia coli) [µg/mL] | MIC (Aspergillus clavatus) [µg/mL]
COc1ccc(-c2cc(=O)n(-c3cccc(Cl)c3)c(N3CCCC3)c2/N=N/c2ccc(Cl)cc2[N+](=O)[O-])cc1 | 500 (≈ 886 µM) | 200 (≈ 354 µM) | 250 (≈ 443 µM) | 250 (≈ 443 µM) | 98 | 500 (≈ 886 µM) | 250 (≈ 443 µM) | 250 (≈ 443 µM) | 200 (≈ 354 µM)
COc1ccc(-c2cc(N3CCCC3)n(-c3cccc(Cl)c3)c(=O)c2)cc1 | 500 (≈ 1310 µM) | 1000 (≈ 2630 µM) | 500 (≈ 1310 µM) | 1000 (≈ 2630 µM) | 99 | 500 (≈ 1310 µM) | 500 (≈ 1310 µM) | 250 (≈ 656 µM) | 1000 (≈ 2630 µM)
